For 36 compounds, IC50 and inhibition results are on record in US6455550B1, “N-alkanoylphenylalanine derivatives” (Hoffmann-La Roche Inc., priority 1997, dated 2002).

The target in the test is T1, VLA-4 (α4β1 integrin) binding to immobilized VCAM-1 (Homo sapiens, UniProt P05556+P13612).
T1 construct: followed by 10 μl of Ramos cell-derived VLA-4; endogenous in cells; host or cells: Ramos cells (VLA-4 preparation derived from the cells)
Kind of test: VLA-4/VCAM-1 Screening Assay (solid-phase, dual antibody ELISA). Conditions: for IC50: Ramos cell-derived VLA-4, recombinant human VCAM-1 coated plates, 2 hr at 37° C. As to the method:
VLA-4 antagonist activity, defined as ability to compete for binding to immobilized VCAM-1 was quantitated using a solid-phase, dual antibody ELISA. VLA-4 (α4β1 integrin) bound to VCAM-1 was detected by a complex of anti-integrin β1 antibody: HRP-conjugated anti-mouse IgG: chromogenic substrate (K-Blue). Initially, this entailed coating 96 well plates (Nunc Maxisorp) with recombinant human VCAM-1 (0.4 μg in 100 μl PBS), sealing each plate and then allowing the plates to stand at 4° C for Å18 hr. […] On the day of assay, all plates were washed twice with VCAM Assay Buffer (200 μl/well of 50 mM Tris-HCl, 100 mM NaCl, 1 mM MnCl2, 0.05% Tween 20; pH 7.4). Test compounds were dissolved in 100% DMSO and then diluted 1:20 in VCAM Assay Buffer supplemented with 1 mg/mL BSA (i.e., final DMSO=5%). […] 100 μl per well of each dilution was added to the VCAM-coated plates, followed by 10 μl of Ramos cell-derived VLA-4. These plates were sequentially mixed on a platform shaker for 1 min, incubated for 2 hr at 37° C. and then washed four times with 200 μl/well VCAM Assay Buffer. 100 μl of mouse anti-human integrin β1 antibody was added to each well (0.6 μg/mL in VCAM Assay Buffer+1 mg/mL BSA) and allowed to incubate for 1 hr at 37° C. At the conclusion of this incubation period, all plates were washed four times with VCAM Assay Buffer (200 μl/well). A corresponding second antibody, HRP-conjugated goat anti-mouse IgG (100 μl per well @1:800 dilution in VCAM Assay Buffer+1 mg/mL BSA), was then added to each well, followed by a 1 hr incubation at room temperature and concluded by three washes (200 μl/well) with VCAM Assay Buffer. Color development was initiated by addition of 100 μl K-Blue per well (15 min incubation, room temp) and terminated by addition of 100 μl Red Stop Buffer per well. […] Results were calculated as % inhibition of total binding (i.e., VLA-4+VCAM-1 in the absence of test compound).
(An ELISA detects its analyte on a solid surface through an enzyme-linked reagent.)

Counter-ions that a name gives are not always drawn. Like-named read-outs stand apart in the source and are kept apart here.

T1 sequence (P13612 34-1032): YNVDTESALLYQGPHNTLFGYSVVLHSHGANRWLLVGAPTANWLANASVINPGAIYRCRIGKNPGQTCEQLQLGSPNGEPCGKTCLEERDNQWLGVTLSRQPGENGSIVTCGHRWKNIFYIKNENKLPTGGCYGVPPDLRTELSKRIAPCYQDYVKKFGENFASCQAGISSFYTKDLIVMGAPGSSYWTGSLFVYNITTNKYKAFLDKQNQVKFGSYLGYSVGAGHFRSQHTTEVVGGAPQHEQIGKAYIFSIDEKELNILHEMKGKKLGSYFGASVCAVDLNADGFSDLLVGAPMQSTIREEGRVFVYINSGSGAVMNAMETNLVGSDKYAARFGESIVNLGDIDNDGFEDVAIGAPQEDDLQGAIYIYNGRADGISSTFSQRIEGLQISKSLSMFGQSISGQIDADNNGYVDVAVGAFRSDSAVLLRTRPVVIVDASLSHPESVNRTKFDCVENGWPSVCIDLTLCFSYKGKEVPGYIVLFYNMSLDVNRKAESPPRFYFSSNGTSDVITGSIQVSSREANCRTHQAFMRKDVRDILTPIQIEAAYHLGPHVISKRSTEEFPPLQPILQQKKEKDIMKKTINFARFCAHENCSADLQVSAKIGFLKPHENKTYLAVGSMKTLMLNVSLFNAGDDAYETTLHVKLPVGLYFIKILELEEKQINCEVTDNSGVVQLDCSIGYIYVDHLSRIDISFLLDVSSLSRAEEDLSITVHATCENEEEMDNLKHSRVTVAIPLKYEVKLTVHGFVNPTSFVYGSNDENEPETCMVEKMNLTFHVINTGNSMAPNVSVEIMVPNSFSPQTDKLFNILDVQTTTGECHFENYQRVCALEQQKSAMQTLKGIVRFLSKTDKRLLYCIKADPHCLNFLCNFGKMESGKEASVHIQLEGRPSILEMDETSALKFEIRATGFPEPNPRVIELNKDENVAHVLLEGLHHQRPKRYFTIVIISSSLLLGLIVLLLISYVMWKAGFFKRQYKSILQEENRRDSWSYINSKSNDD
T1 sequence (P05556 21-798): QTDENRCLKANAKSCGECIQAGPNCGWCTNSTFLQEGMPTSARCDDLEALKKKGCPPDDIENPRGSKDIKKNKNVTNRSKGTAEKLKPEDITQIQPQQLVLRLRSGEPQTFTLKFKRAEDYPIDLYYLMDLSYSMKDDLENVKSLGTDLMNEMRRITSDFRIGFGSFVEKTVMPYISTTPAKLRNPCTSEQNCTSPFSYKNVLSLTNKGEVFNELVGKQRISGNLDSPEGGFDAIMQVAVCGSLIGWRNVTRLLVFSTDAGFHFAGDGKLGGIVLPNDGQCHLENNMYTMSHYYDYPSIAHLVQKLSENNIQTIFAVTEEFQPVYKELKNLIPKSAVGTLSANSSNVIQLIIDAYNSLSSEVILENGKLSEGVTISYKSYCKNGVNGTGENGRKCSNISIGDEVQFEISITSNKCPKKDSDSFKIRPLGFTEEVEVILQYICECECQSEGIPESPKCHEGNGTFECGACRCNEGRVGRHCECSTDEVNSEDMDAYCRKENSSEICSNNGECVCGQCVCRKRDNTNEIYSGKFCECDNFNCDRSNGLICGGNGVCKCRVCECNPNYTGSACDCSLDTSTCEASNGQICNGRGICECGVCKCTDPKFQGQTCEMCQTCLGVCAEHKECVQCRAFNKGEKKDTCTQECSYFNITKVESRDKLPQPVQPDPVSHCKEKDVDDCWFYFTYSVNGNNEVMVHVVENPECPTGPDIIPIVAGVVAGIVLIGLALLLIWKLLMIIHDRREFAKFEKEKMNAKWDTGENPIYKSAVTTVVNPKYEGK

Usually IC50 stands for the point on the concentration scale where inhibition reaches its midpoint. For the compound “4-[[(4-Cyano-4-phenyl-1-piperidinyl)carbonyl]amino]-L-phenylalanine on Wang Resin [Example 116]”, the IC50 (read-out: IC50) stood at 0.88 nM. In the case of `COCCC1(C(=O)NC(Cc2ccc(N3C(=O)C(CC(C)C)N(C(C)=O)C3c3ccc(OC)cc3)cc2)C(=O)O)CCCC1` (single isomer, unassigned) [Example 130], the IC50 (read-out: IC50) worked out at 6.6 nM.

`COCCC1(C(=O)NC(Cc2ccc(N3C(=O)C(CC(C)C)N(C(C)=O)C3c3ccc(OC)cc3)cc2)C(=O)O)CCCC1` (single isomer, unassigned) [Example 131]: the IC50 (read-out: IC50) is 63 nM. Same read-out and setting: the same measure for `COCCC1(C(=O)NC(Cc2ccc(N3C(=O)C(CC(C)C)N(C(C)=O)C3c3ccc(Cl)cc3)cc2)C(=O)O)CCCC1` (single isomer, unassigned) [Example 132]: 2.8 nM; for `COCCC1(C(=O)NC(Cc2ccc(N3C(=O)C(CC(C)C)N(C(C)=O)C3c3ccc(Cl)cc3)cc2)C(=O)O)CCCC1` (single isomer, unassigned) [Example 133]: 60 nM. Still for that read-out and setting: to `COCCC1(C(=O)NC(Cc2ccc(N3C(=O)C(CC(C)C)N(C(C)=O)C3c3ccc(OC)cc3)cc2)C(=O)O)CCCC1` (single isomer, unassigned) [Example 136] belongs 0.73 nM.

With `COCCC1(C(=O)NC(Cc2ccc(N3C(=O)C(CC(C)C)N(C(C)=O)C3c3ccc(OC)cc3)cc2)C(=O)O)CCCC1` (single isomer, unassigned) [Example 137], for the setting “read-out: IC50”, the IC50 was found to be 19 nM.

`COCCC1(C(=O)NC(Cc2ccc(N3C(=O)C(CC(C)C)N(C(C)=O)C3c3ccc(Cl)cc3)cc2)C(=O)O)CCCC1` (single isomer, unassigned) [Example 138]: the IC50 (read-out: IC50) turned out to be 0.42 nM. Still for that read-out and setting: the same measure for `COCCC1(C(=O)NC(Cc2ccc(N3C(=O)C(CC(C)C)N(C(C)=O)C3c3ccc(Cl)cc3)cc2)C(=O)O)CCCC1` (single isomer, unassigned) [Example 139]: 38 nM; for `O=C(Nc1ccc(C[C@H](NC(=O)C2(c3ccccc3)CCCC2)C(=O)O)cc1)c1ccnc2ccccc12` [Example 27, N-[(1-Phenylcyclopentyl)carbonyl]-4-[(4-quinolinylcarbonyl)amino]-L-phenylalanine Sodium Salt]: 2.7 nM; for `O=C(Nc1ccc(C[C@H](NC(=O)C2(Cc3ccccc3)CCCC2)C(=O)O)cc1)c1ccccc1[N+](=O)[O-]` [Example 35, 4-[[(2-Nitrophenyl)carbonyl]amino]-N-[[1-(phenylmethyl)cyclopentyl]carbonyl]-L-phenylalanine]: 5 nM. Regarding `Cc1ccc([N+](=O)[O-])cc1C(=O)Nc1ccc(C[C@H](NC(=O)C2(Cc3ccccc3)CCCC2)C(=O)O)cc1` [Example 36, 4-[[(2-Methyl-5-nitrophenyl)carbonyl]amino]-N-[[1-(phenylmethyl)cyclopentyl]carbonyl]-L-phenylalanine], for the setting “read-out: IC50”, the concentration for half-maximal inhibition (IC50) turned out to be 4.6 nM. Consider `O=C(Nc1ccc(C[C@H](NC(=O)C2(Cc3ccccc3)CCCC2)C(=O)O)cc1)c1c(Cl)cccc1Cl` [Example 37, 4-[[(2,6-Dichlorophenyl)carbonyl]amino]-N-[[1-(phenylmethyl)cyclopentyl]carbonyl]-L-phenylalanine], for which, for the setting “read-out: IC50”, the IC50 was found to be 5 nM. Regarding `COc1ccc(CC2(C(=O)N[C@@H](Cc3ccc(NC(=O)c4ccnc5ccccc45)cc3)C(=O)O)CCCC2)cc1` [Example 40, N-[[1-[(4-Methoxyphenyl)methyl]cyclopentyl]carbonyl]-4-[(4-quinolinylcarbonyl)amino]-L-phenylalanine], the IC50 (read-out: IC50) stood at 2.1 nM. On to `COc1ccc(CC2(C(=O)N[C@@H](Cc3ccc(NC(=O)c4ccccc4[N+](=O)[O-])cc3)C(=O)O)CCCC2)cc1` [Example 41, N-[[1-[(4-Methoxyphenyl)methyl]cyclopentyl]carbonyl]-4-[[(2-nitrophenyl)carbonyl]amino]-L-phenylalanine], for which the IC50 (read-out: IC50) is 1.7 nM. Still for that read-out and setting: to `COc1ccc(CC2(C(=O)N[C@@H](Cc3ccc(NC(=O)c4cc([N+](=O)[O-])ccc4C)cc3)C(=O)O)CCCC2)cc1` [Example 42, N-[[1-[(4-Methoxyphenyl)methyl]cyclopentyl]carbonyl]-4-[[(2-methyl-5-nitrophenyl)carbonyl]amino]-L-phenylalanine] belongs 0.61 nM; to `Cn1nnnc1-c1cccc(CC2(C(=O)N[C@@H](Cc3ccc(NC(=O)c4c(Cl)cccc4Cl)cc3)C(=O)O)CCCC2)c1` [Example 48], 0.44 nM; to `CC1(C)C2CCC1(C(=O)NC(Cc1ccc(NC(=O)c3c(Cl)cccc3Cl)cc1)C(=O)O)C(=O)C2` (stereo not shown) [Example 49], 4.7 nM. On the same count and under the same terms, the same measure for `Cn1nnnc1-c1cccc(CC2(C(=O)N[C@@H](Cc3ccc(NC(=O)c4c(Cl)cccc4Cl)cc3)C(=O)O)CCCCC2)c1` [Example 50]: 1.3 nM. For `O=C(Nc1ccc(C[C@H](NC(=O)C2(Cc3ccccc3Cl)CCCC2)C(=O)O)cc1)c1c(Cl)cccc1Cl` [Example 51], the IC50 (IC50 nM) worked out at 1.6 nM. Take `COc1cccc(CC2(C(=O)N[C@@H](Cc3ccc(NC(=O)c4c(Cl)cccc4Cl)cc3)C(=O)O)CCCC2)c1` [Example 52]: the IC50 (IC50 nM) was 1.1 nM. As for `COc1ccc(CC2(C(=O)NC(Cc3ccc(NC(=O)c4c(Cl)cccc4Cl)cc3)C(=O)O)CCCC2)cc1OC` (stereo not shown) [Example 54], where the note is “read-out: IC50”, the IC50 is 0.82 nM. Still for that read-out and setting: the same measure for `COCC1(C(=O)NC(Cc2ccc(NC(=O)c3c(Cl)cccc3Cl)cc2)C(=O)O)CCCC1` (stereo not shown) [Example 60]: 1.05 nM; for `CC1(C(=O)N[C@@H](Cc2ccc(NC(=O)c3ccnc4ccccc34)cc2)C(=O)O)CC1(Cl)Cl` (stereo partly drawn) [Example 64, N-[(2,2-Dichloro-1-methylcyclopropyl)carbonyl]-4-[(4-quinolinylcarbonyl)amino]-L-phenylalanine]: 3 nM.

A word on the inhibition: it is the relative decrease from the control value, in per cent. On to `O=C(Nc1ccc(C[C@H](NC(=O)C23CC4CC(CC(C4)C2)C3)C(=O)O)cc1)c1ccnc2ccccc12` [Example 65], for which the inhibition at 0.01 µM stood at 72% and the inhibition at 0.1 µM is 92%. Further, the IC50 (read-out: IC50) is 2.4 nM. Compound `CCCC(C)(CC)C(=O)N[C@@H](Cc1ccc(NC(=O)c2ccnc3ccccc23)cc1)C(=O)O` (stereo partly shown) [Example 68] had an inhibition at 0.01 µM of 49% and an inhibition at 0.1 µM of 86%. The IC50 (read-out: IC50) amounted to 8.2 nM.

As for `CCC(C(=O)N[C@@H](Cc1ccc(NC(=O)c2ccnc3ccccc23)cc1)C(=O)O)c1ccccc1` (stereo partly shown) [Example 69], the inhibition at 0.01 µM was 49% and the inhibition at 0.1 µM worked out at 87%. For the same compound, the IC50 (read-out: IC50) was determined as 5.8 nM.

As to `CC1(C(=O)N[C@@H](Cc2ccc(NC(=O)c3ccnc4ccccc34)cc2)C(=O)O)CCCCC1` [Example 70], the inhibition at 0.01 µM was 49% and the inhibition at 0.1 µM was determined as 86%. Moreover, the IC50 (read-out: IC50) is 7 nM. Consider `CC1CCC(C)(C(=O)N[C@@H](Cc2ccc(NC(=O)c3ccnc4ccccc34)cc2)C(=O)O)C1(C)C` (stereo partly shown) [Example 71], for which the inhibition at 0.01 µM turned out to be 51% and the inhibition at 0.1 µM turned out to be 86%. For the same compound, under “read-out: IC50”, the IC50 amounted to 2.5 nM. On the same counts, the results for `O=C(Nc1ccc(C[C@H](NC(=O)C2(c3ccccc3)CCCC2)C(=O)O)cc1)c1ccnc2ccccc12` [Example 75] are 68%, 92% and 3.8 nM. `CC(C)C(C(=O)N[C@@H](Cc1ccc(NC(=O)c2ccnc3ccccc23)cc1)C(=O)O)c1ccccc1` (stereo partly shown) [Example 76] yielded an inhibition at 0.01 µM of 73% and an inhibition at 0.1 µM of 93%. Moreover, for the setting “read-out: IC50”, the IC50 is 4.6 nM.

`O=C(Nc1ccc(C[C@H](NC(=O)C2(c3ccccc3)CCCCC2)C(=O)O)cc1)c1ccnc2ccccc12` [Example 77] came in with an inhibition at 0.01 µM of 67% and an inhibition at 0.1 µM of 93%. Besides, the IC50 (read-out: IC50) was found to be 5.6 nM.

Consider `Cc1ccc(C2(C(=O)N[C@@H](Cc3ccc(NC(=O)c4ccnc5ccccc45)cc3)C(=O)O)CCCC2)cc1` [Example 78], for which the inhibition at 0.01 µM stood at 63% and testing at 0.1 µM gave an inhibition of 93%. The IC50 (read-out: IC50) was determined as 9 nM. Consider `COc1ccc(C2(C(=O)N[C@@H](Cc3ccc(NC(=O)c4ccnc5ccccc45)cc3)C(=O)O)CCCCC2)cc1` [Example 79], for which the inhibition at 0.01 µM came to 77% and the inhibition at 0.1 µM is 95%. Moreover, under “read-out: IC50”, the IC50 is 1.2 nM. `O=C(Nc1ccc(C[C@H](NC(=O)C2(c3ccc(Cl)cc3)CCCC2)C(=O)O)cc1)c1ccnc2ccccc12` [Example 80] had an inhibition at 0.01 µM of 53% and an inhibition at 0.1 µM of 89%. Also, for the setting “read-out: IC50”, the IC50 turned out to be 6.4 nM. Take `O=C(Nc1ccc(C[C@H](NC(=O)C23CC4CC(CC(C4)C2)C3)C(=O)O)cc1)c1c(Cl)cccc1Cl` [Example 83]: the half-maximal inhibitory concentration (IC50) (read-out: IC50) was determined as 1.1 nM.
